Assay results from ChEMBL document CHEMBL4433214, “Investigation around the Oxadiazole Core in the Discovery of a New Chemotype of Potent and Selective FXR Antagonists” (ACS Med Chem Lett, 2019).
Active and inactive are the calls of the source. The calls are words filed in the database; no cut-off is given here.

Key:
[1] = target: T1, Bile acid receptor (Homo sapiens) (UniProt Q96RI1); assay: Antagonist activity at human FXR assessed as reduction in CDCA-induced FXR-SRC-1 recruitment at 500 to 1000 nM incubated for 30 mins by alpha screen assay
T1 sequence (whole entry): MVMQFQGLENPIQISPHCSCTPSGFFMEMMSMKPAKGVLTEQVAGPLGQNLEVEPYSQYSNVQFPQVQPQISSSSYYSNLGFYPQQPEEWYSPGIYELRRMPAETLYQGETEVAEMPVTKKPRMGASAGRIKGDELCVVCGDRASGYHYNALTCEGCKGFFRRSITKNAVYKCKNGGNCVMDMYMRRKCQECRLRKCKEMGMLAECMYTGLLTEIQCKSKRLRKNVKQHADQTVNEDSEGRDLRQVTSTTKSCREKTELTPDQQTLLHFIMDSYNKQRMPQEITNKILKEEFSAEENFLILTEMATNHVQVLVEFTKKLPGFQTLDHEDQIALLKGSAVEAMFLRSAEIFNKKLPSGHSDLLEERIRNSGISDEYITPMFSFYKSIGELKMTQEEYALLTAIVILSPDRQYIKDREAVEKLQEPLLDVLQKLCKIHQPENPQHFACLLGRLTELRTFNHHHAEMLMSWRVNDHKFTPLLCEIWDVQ

[2] = Metabolic stability in rat liver microsomes assessed as parent compound remaining at 1 uM measured after 40 mins by LC-MS/MS analysis
[3] = target: T2, Peroxisome proliferator-activated receptor gamma (Homo sapiens) (UniProt P37231); assay: Agonist activity at human PPARgamma transfected in HepG2 at 10 uM by luciferase reporter assay; assay type: cell-based
T2 sequence (whole entry): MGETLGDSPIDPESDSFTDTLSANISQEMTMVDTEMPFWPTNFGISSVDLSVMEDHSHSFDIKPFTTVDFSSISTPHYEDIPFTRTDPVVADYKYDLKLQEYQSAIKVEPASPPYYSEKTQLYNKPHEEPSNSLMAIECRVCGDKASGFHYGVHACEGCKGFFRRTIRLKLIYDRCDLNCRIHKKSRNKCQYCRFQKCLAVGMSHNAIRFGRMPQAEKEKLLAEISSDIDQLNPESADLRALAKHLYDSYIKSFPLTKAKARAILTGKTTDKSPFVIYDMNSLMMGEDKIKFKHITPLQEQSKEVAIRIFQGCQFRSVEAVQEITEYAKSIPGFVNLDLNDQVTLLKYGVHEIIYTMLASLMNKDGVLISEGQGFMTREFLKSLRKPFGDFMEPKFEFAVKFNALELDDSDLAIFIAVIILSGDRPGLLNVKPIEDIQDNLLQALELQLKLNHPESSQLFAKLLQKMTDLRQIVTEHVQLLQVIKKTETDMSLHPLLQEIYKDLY

[4] = target: T3, Nuclear receptor subfamily 1 group I member 2 (Homo sapiens, UniProt O75469); assay: Agonist activity at human PXR transfected in HepG2 at 10 uM by luciferase reporter assay; assay type: cell-based; conditions: hepg2, 10 µM
T3 sequence (O75469 whole entry): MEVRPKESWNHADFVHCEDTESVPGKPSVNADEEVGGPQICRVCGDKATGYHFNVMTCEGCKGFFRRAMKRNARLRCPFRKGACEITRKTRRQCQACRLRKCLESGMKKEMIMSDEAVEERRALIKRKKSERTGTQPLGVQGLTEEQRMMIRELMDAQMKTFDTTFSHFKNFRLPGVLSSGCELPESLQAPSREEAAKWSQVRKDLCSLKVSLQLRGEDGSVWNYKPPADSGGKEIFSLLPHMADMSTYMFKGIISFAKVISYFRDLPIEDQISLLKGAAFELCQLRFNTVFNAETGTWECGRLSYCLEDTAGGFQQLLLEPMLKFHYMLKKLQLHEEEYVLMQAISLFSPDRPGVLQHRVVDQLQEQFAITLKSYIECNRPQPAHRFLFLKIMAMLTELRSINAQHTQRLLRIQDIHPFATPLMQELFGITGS

[5] = target: T4, Bile acid receptor (Homo sapiens, UniProt Q96RI1); assay: Antagonist activity at human FXR transfected in HepG2 cells assessed as inhibition of CDCA-induced receptor transactivation by luciferase reporter assay; assay type: cell-based
T4 sequence (Q96RI1 whole entry): T1 sequence (whole entry)

[6] = target: T3, Nuclear receptor subfamily 1 group I member 2; assay: Antagonist activity at human PXR transfected in HepG2 at 5 uM in presence of PXR agonist rifaximin by luciferase reporter assay; assay type: cell-based; conditions: hepg2, 5 µM
[7] = target: T1, Bile acid receptor (Homo sapiens); assay: Antagonist activity at human FXR in HepG2 cells assessed as reversal of CDCA-induced increase in OSTalpha mRNA expression level at 0.1 to 1 uM dosed after 24 hrs starvation followed by CDCA addition and measured after 18 hrs by RT-PCR analysis
[8] = target: T5, Oxysterols receptor LXR-beta (Homo sapiens) (UniProt P55055); assay: Agonist activity at human LXRbeta transfected in HepG2 at 10 uM by luciferase reporter assay; assay type: cell-based
T5 sequence (whole entry): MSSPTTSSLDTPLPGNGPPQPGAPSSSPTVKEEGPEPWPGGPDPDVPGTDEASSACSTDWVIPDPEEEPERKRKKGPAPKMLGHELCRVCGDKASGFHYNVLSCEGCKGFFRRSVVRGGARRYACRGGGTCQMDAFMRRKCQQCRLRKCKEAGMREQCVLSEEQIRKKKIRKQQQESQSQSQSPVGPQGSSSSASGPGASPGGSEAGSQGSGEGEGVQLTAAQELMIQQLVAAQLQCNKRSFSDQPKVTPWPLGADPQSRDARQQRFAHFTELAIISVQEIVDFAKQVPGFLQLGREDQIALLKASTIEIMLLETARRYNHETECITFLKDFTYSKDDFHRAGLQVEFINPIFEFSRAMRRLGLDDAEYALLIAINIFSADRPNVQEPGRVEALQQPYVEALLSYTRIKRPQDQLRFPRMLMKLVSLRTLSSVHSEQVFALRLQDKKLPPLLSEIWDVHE

[9] = Lipophilicity, log D of the compound by LC-MS/MS analysis; assay type: physicochemical; conditions: octanol/water
[10] = target: T6, Oxysterols receptor LXR-alpha (Homo sapiens) (UniProt Q13133); assay: Antagonist activity at human LXRalpha transfected in HepG2 at 5 uM in presence of LXRalpha agonist GW3965 by luciferase reporter assay; assay type: cell-based
T6 sequence (whole entry): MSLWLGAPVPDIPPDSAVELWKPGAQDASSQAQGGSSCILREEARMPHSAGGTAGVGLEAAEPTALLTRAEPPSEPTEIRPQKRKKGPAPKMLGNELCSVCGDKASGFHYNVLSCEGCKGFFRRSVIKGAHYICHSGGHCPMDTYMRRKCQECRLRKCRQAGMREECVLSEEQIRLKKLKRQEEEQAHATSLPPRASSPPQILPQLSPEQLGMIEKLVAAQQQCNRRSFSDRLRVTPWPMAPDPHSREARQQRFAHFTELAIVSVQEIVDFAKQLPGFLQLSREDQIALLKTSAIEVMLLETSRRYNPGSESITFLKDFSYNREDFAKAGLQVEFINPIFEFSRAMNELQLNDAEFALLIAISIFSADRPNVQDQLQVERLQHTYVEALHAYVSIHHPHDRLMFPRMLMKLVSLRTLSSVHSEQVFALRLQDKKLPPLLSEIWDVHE

inhibition [1]: Active | remaining at 40 min, 1 µM [2]: 76.2% | Activity [3]: inactive | Activity [4]: Not Active | IC50 [5]: 580 nM | Activity [6]: Not Active | Activity [7]: Active | Activity [8]: inactive | logD [9]: 0.34 | Activity [10]: inactive
SMILES: c1ccc2cc(-c3noc(C4CCNCC4)n3)ccc2c1
